Measurements as given in US20230391779A1, “BICYCLIC COMPOUNDS, COMPOSITIONS AND USE THEREOF” (Betta Pharmaceuticals Co., Ltd., priority 2020, published 2023).

system: TEAD-YAP/TAZ interaction; assay: CTGF ELISA assay; type: cell-based, human; details: CTGF in culture supernatant of NCI-H2052 cells, 24 hours with compound
Procedure: The detection of CTGF expression level can assessed the binding activity of TEAD-YAP/TAZ transcription factor, and the CTGF expression level was quantified by SimpleStep ELISA® kit (Abcam, ab261851).
NCI-H2052 cells (Purchased from ATCC) were cultured in RPMI 1640 medium, adding 10% FBS and 1% Penicillin-Streptomycin Solution and 1 mM Sodium pyruvate. The day before compounds treatment, the cultured cells were washed with PBS and digested with trypsin, then centrifuged and collected. Discarded the supernatant, the cells were resuspended in fresh complete medium. After cells counted, cells were seeded at 6500 cells/well in 96-well plates. And then cells were cultured overnight in incubator (37° C., 5% CO2).
After the cells were cultured overnight, discarded the culture supernatant, then washed with PBS solution, cells were incubated with 200 μl medium containing compounds in each well. The starting concentration was 10 μM and serial dilution in DMSO and medium were performed to achieve a final DMSO concentration of 0.5% (Final compounds concentration were 10000, 2500, 625, 156, 39.1, 9.77, 2.44, 0.61 nM, 0 nM (0.5% DMSO), The cells were then cultured in incubator (37° C., 5% CO2). Cultured for 24 hours, the cells were centrifuged at 1500 RPM at 4° C. for 5 minutes, and then 50 μl of culture supernatant were tested for CTGF ELISA assay.
The Human CTGF SimpleStep ELISA® Kit (Abcam, ab261851) employs an affinity tag labeled capture antibody and a reporter conjugated detector antibody which immunocapture the sample analyte in solution. This entire complex (capture antibody/analyte/detector antibody) is in turn immobilized via immunoaffinity of an anti-tag antibody coating the well. To perform the assay, samples or standards are added to the wells, followed by the antibody mix (capture antibody/detector antibody). After incubation, the wells are washed to remove unbound material. TMB Development Solution is added and during incubation is catalyzed by HRP, generating blue coloration. This reaction is then stopped by addition of Stop Solution completing any color change from blue to yellow. Signal is generated proportionally to the amount of bound analyte and the intensity is measured at 450 nm. Firstly, prepare all reagents, samples, and standards as instructed. Add 50 μl standard or sample to appropriate wells. Then add 50 μl of the Antibody Cocktail to each well. Seal the plate and incubate for 1 hour at room temperature on a plate shaker. Wash each well with Wash Buffer three times. Add 100 μl of TMB Development Solution to each well and incubate for 10 minutes in the dark on a plate shaker. Add 100 μl of Stop Solution to each well. Shake plate on a plate shaker for 1 minute to mix. Record the OD at 450 nm. Determine the concentration of the target protein in the sample by the standard curve.
EC50 value was determined by fitting the concentration response curves using GraphPad Prism software. The compounds of the present invention were tested for their capacity to inhibit TEAD-YAP/TAZ interaction according to the fitted curves of CTGF concentration response to compounds.

Row | Structure (SMILES) | EC50
1 | C=CC(=O)N1CC(n2c(=O)n(-c3ccc(C(F)(F)F)cc3)c3ccccc32)C1 [Compound 236, 1-(1-acryloylazetidin-3-yl)-3-(4-(trifluoromethyl)phenyl)-1,3-dihydro-2H-benzo[d]imidazol-2-one] | 3 nM
2 | C=CC(=O)N1CC(n2nc(-c3ccc(C(F)(F)F)nc3)c3cccnc32)C1 [Compound 123, 1-(3-(3-(6-(trifluoromethyl)pyr-idin-3-yl)-1H-pyrazolo[3,4-b]-pyridin-1-yl)azetidin-1-yl)prop-2-en-1-one] | 7 nM
3 | C=C(C)C(=O)N1CC(n2nc(-c3ccc(C(F)(F)F)cc3)c3ncccc32)C1 [Compound 87, 2-methyl-1-(3-(3-(4-(trifluoro-methyl)phenyl)-1H-pyrazolo[4,3-b]pyridin-1-yl)azetidin-1-yl)prop-2-en-1-one] | 7 nM
4 | C=C(F)C(=O)Nc1cc(-n2nc(-c3ccc(C(F)(F)F)cc3)c3cccnc32)ccc1OC [Compound 188, 2-fluoro-N-(2-methoxy-5-(3-(4-(trifluoromethyl)phenyl)-1H-pyrazolo[3,4-b]pyridin-1-yl)-phenyl)acrylamide] | 0.06 nM
5 | C=C(F)C(=O)N1CC(n2nc(-c3ccc(C(F)(F)F)cc3)c3c2CCCC3)C1 [Compound 217, 2-fluoro-1-(3-(3-(4-(trifluoro-methyl)phenyl)-4,5,6,7-tetra-hydro-1H-indazol-1-yl)azetidin-1-yl)prop-2-en-1-one] | 5.7 nM
6 | C=C(F)C(=O)N1CC(Nc2nc(-c3ccc(C(F)(F)F)cc3)nc3ccccc23)C1 [Compound 255, 2 fluoro-1-(3-((2-(4-(trifluoromethyl)phenyl)quinazolin-4 yl)amino)azetidin-1 yl)prop-2-en-1-one] | 44 nM
7 | C=C(F)C(=O)N1CC(n2nc(-c3ccc(C(C)C)cc3)c3cccnc32)C1 [Compound 171, 2-fluoro-1-(3-(3-(4-isopropyl-phenyl)-1H-pyrazolo[3,4-b]-pyridin-1-yl)azetidin-1-yl)prop-2-en-1-one] | 148 nM
8 | C=C(F)C(=O)N1CC(n2nc(-c3ccc(C(F)(F)F)cc3)c3nccnc32)C1 [Compound 160, 2-fluoro-1-(3-(3-(4-(trifluoro-methyl)phenyl)-1H-pyrazolo[3,4-b]pyrazin-1-yl)azetidin-1-yl)prop-2-en-1-one] | 9 nM
9 | C=CC(=O)Nc1cc(-n2nc(-c3ccc(C(F)(F)F)cc3)c3cccnc32)ccc1Cl [Compound 189, N-(2-chloro-5-(3-(4-(trifluoro-methyl)phenyl)-1H-pyrazolo[3,4-b]pyridin-1-yl)phenyl)acrylamide] | 24 nM
10 | C=C(F)C(=O)N1CC(n2nc(-c3ccc(C(F)(F)F)cc3)c3c2CCOC3)C1 [Compound 208, 2-fluoro-1-(3-(3-(4-(trifluoro-methyl)phenyl)-6,7-dihydro-pyrano-[4,3-c]pyrazol-1(4H)-yl)-azetidin-1-yl)prop-2-en-1-one] | 4.1 nM
11 | C=CC(=O)N1CC(n2c(=N)n(-c3ccc(C(F)(F)F)cc3)c3ccccc32)C1 [Compound 231, 1-(3-(2-imino-3-(4-(trifluoromethyl)phenyl)-2,3-dihydro-1H-benzo[d]imidazol-1 yl)azetidin-1 yl)prop-2-en-1-one] | 360 nM
12 | CCOC(=O)N1CC(n2nc(-c3ccc(OC(F)(F)F)cc3)c3cccnc32)C1 [Com. EX.5, ethyl 3-(3-(4-(trifluoromethoxy)phenyl)-1H-pyrazolo[3,4-b]pyridin-1-yl)azetidine-1-carboxylate, reference compound] | > 10000 nM
13 | C=CC(=O)N1CC(n2nc(-c3ccc(C(F)(F)F)nc3)c3ncccc32)C1 [Compound 131, 1-(3-(3-(6-(trifluoromethyl)pyr-idin-3-yl)-1H-pyrazolo[4,3-b]-pyridin-1-yl)azetidin-1-yl)prop-2-en-1-one] | 18 nM
14 | C=CC(=O)N1CCN(C(=O)c2nn(-c3ccc(C(F)(F)F)cc3)c3ccccc23)CC1 [Compound 43, 1-(4-(1-(4-(trifluoromethyl)phen-yl)-1H-indazole-3-carbonyl)-piperazin-1-yl)prop-2-en-1-one] | 11 nM
15 | C=C(F)C(=O)N1CC(n2nc(-c3ccc(C(F)(F)F)nc3)c3ccc(C)nc32)C1 [Compound 199, 2-fluoro-1-(3-(6-methyl-3-(6-(trifluoromethyl)pyridin-3-yl)-1H-pyrazolo[3,4-b]pyridin-1-yl)-azetidin-1-yl)prop-2-en-1-one] | 20 nM

Results, then the compound that gave them:

Row | EC50 | Structure (SMILES)
16 | 8 nM | C=CC(=O)N1CC(n2nc(-c3ccc(C(F)(F)F)cc3F)c3ncccc32)C1 [Compound 129, 1-(3-(3-(2-fluoro-4-(trifluoro-methyl)phenyl)-1H-pyrazolo[4,3-b]pyridin-1-yl)azetidin-1-yl)prop-2-en-1-one]
17 | 2 nM | C=C(F)C(=O)N1CC(n2nc(-c3ccc(C(F)(F)F)cc3)c3ccc(C)nc32)C1 [Compound 186, 2-fluoro-1-(3-(6-methyl-3-(4-(trifluoromethyl)phenyl)-1H-pyrazolo[3,4-b]pyridin-1-yl)-azetidin-1-yl)prop-2-en-1-one]
18 | 5 nM | C=CC(=O)N1CC(n2nc(-c3ccc(C(F)(F)F)cc3)c3ncccc32)C1 [Compound 82, 1-(3-(3-(4-(trifluoromethyl)phen-yl)-1H-pyrazolo[4,3-b]pyridin-1-yl)azetidin-1-yl)prop-2-en-1-one]
19 | 12 nM | C=CC(=O)N1CCC(n2nc(-c3ccc(C(F)(F)F)cc3)c3cccc(C(F)(F)F)c32)C1 (centres unmarked) [Compound 46, 1-(3-(7-(trifluoromethyl)-3-(4-(trifluoromethyl)phenyl)-1H-indazol-1-yl)pyrrolidin-1-yl)-prop-2-en-1-one]
20 | 12 nM | C=CC(=O)N1CCC(n2nc(-c3ccc(C(F)(F)F)cc3)c3cc(OC)cnc32)C1 (centres unmarked) [Compound 94, 1-(3-(5-methoxy-3-(4-(trifluoro-methyl)phenyl)-1H-pyrazolo[3,4-b]pyridin-1-yl)pyrrolidin-1-yl)-prop-2-en-1-one]
21 | 12 nM | C=CC(=O)N1CCC(n2nc(-c3ccc(C(F)(F)F)cc3F)c3cccnc32)C1 (centres unmarked) [Compound 29, 1-(3-(3-(2-fluoro-4-(trifluoro-methyl)phenyl)-1H-pyrazolo[3,4-b]pyridin-1-yl)pyrrolidin-1-yl)-prop-2-en-1-one]
22 | 4 nM | C=CC(=O)N1CCC(n2nc(-c3ccc(C(F)(F)F)cc3)c3cc(C)cnc32)C1 (centres unmarked) [Compound 96, 1-(3-(5-methyl-3-(4-(trifluoro-methyl)phenyl)-1H-pyrazolo[3,4-b]pyridin-1-yl)pyrrolidin-1-yl)-prop-2-en-1-one]
23 | 44 nM | C=CC(=O)N1CCC(n2nc(-c3ccc(C(F)(F)F)cc3)c3cc(F)c(F)cc32)C1 (centres unmarked) [Compound 51, 1-(3-(5,6-difluoro-3-(4-(trifluoro-methyl)phenyl)-1H-indazol-1-yl)-pyrrolidin-1-yl)prop-2-en-1-one]
24 | 16 nM | C=CC(=O)N1CCC(n2nc(-c3ccc(C(F)(F)F)cc3)c3cnccc32)C1 (centres unmarked) [Compound 23, 1-(3-(3-(4-(trifluoromethyl)phen-yl)-1H-pyrazolo[4,3-c]pyridin-1-yl)pyrrolidin-1-yl)prop-2-en-1-one]
25 | 15.5 nM | C=CC(=O)N1CCC(c2nn(-c3ccc(C(F)(F)F)cc3)c3ccccc23)C1 (centres unmarked) [Compound 4, 1-(3-(1-(4-(trifluoromethyl)phenyl)-1H-indazol-3-yl)pyrrolidin-1-yl)prop-2-en-1-one]
26 | 82 nM | C#CC(=O)N1CCC(n2nc(-c3ccc(C(F)(F)F)cc3)c3ccccc32)C1 (centres unmarked) [Compound 57, 1-(3-(3-(4-(trifluoromethyl)phen-yl)-1H-indazol-1-yl)pyrrolidin-1-yl)prop-2-yn-1-one]
